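In this assay, cells in 96-well plates receive the compound at five concentrations for 48 hours. Endpoints are linearly interpolated between the surrounding concentrations. GI50 marks 50% less growth.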 Active and inactive are the calls of the source. Rule as the data show it: active = GI50 up to about 1.1 µM and inactive = higher.
Key:
Assay in all cases: growth of human tumour cells (NCI), 48 h
EKVX = tested on: EKVX
HCT-116 = tested on: HCT-116
HOP-62 = tested on: HOP-62
HT-29 = tested on: HT-29
Hs-578T = tested on: Hs-578T
IGROV-1 = tested on: IGROV-1
LXFL 529 = tested on: LXFL 529
M14 = tested on: M14
MCF7 = tested on: MCF7
Malme-3M = tested on: Malme-3M
NCI-H226 = tested on: NCI-H226
OVCAR-4 = tested on: OVCAR-4
PC-3 = tested on: PC-3
SF-268 = tested on: SF-268
SF-295 = tested on: SF-295
SK-MEL-28 = tested on: SK-MEL-28
SK-MEL-5 = tested on: SK-MEL-5
SK-OV-3 = tested on: SK-OV-3
SR = tested on: SR
T47D = tested on: T47D

Measured: GI50

CCCc1cc(-c2ccc(-c3cc(CCC)c(C=O)[nH]3)s2)[nH]c1C=O
inactive: EKVX > 100 µM | HCT-116 21.8 µM | HOP-62 > 100 µM | HT-29 2.18 µM | Hs-578T 41.2 µM | IGROV-1 > 100 µM | LXFL 529 76.4 µM | M14 7.08 µM | MCF7 64.3 µM | Malme-3M 21.2 µM | NCI-H226 > 100 µM | OVCAR-4 47.4 µM | PC-3 26.5 µM | SF-268 > 84.7 µM | SF-295 11.9 µM | SK-MEL-28 63 µM | SK-MEL-5 29.4 µM | SK-OV-3 > 56.9 µM | SR 2.14 µM | T47D 6.05 µM
